Source: ChEMBL document CHEMBL1649345, “Strychnan and secoangustilobine A type alkaloids from Alstonia spatulata. Revision of the C-20 configuration of scholaricine” (J Nat Prod, 2010)
Converted amounts (≈) assume the structure as drawn.

What was measured:
Format in all cases: functional, cell-based
[1] = Cytotoxicity against human vincristine-sensitive KB/S cells
[2] = Cytotoxicity against human vincristine-resistant KB/VJ300 cells in presence of vincristine
[3] = Cytotoxicity against human vincristine-resistant KB/VJ300 cells

Row | Structure (SMILES) | IC50 [1] [µg/mL] | IC50 [2] [µg/mL] | IC50 [3] [µg/mL]
1 | COC(=O)C1=C2Nc3ccccc3[C@@]23CCN2C[C@H]([C@@H](C)O)[C@@H]1C[C@H]23 | > 25 | 5.12 | > 25
2 | COC(=O)C1=C2Nc3ccccc3[C@@]23CCN2C[C@H]([C@H](C)O)[C@@H]1C[C@H]23 | > 25 | 8.35 | > 25
3 | COC(=O)C1=C2Nc3c(OC)cccc3[C@@]23CCN2C[C@H]([C@@H](C)O)[C@@H]1C[C@H]23 | > 25 | 10.6 | > 25
4 | C=C[C@@]12CNCC[C@@H]1[C@](C(=O)OC)(c1cc3ccccc3[nH]1)CO2 | > 25 | > 25 | > 25
5 | C/C=C1/CN2CC[C@]34C(=C(C(=O)OC)[C@H]1C[C@H]23)Nc1ccccc14 [AKUAMMICINE] | > 25 | 12.3 | > 25
6 | C=C[C@@]12CN(C(=O)OCC)CC[C@@H]1[C@](C(=O)OC)(c1cc3ccccc3[nH]1)CO2 [ALSTOLOBINE A] | > 25 | 3.51 | > 25
7 | CCOC(=O)O[C@H](C)[C@H]1CN2CC[C@]34C(=C(C(=O)OC)[C@H]1C[C@H]23)Nc1ccccc14 [ALSTOLUCINE A] | > 25 | 0.59 | > 25
8 | COC(=O)C1=C2Nc3ccccc3[C@@]23CCN2C[C@@H](C(C)=O)[C@@H]1C[C@H]23 [ALSTOLUCINE B] | > 25 | 0.64 | > 25
9 | COC(=O)C1=C2Nc3ccccc3[C@@]23CC[N+]2([O-])C[C@@H](C(C)=O)[C@@H]1C[C@@H]32 (some centres not stated) [ALSTOLUCINE C] | > 25 | > 25 | > 25
10 | COC(=O)C1=C2Nc3c(O)cccc3[C@@]23CCN2C[C@@H](C(C)=O)[C@@H]1C[C@H]23 [ALSTOLUCINE D] | > 25 | 10.3 | > 25
11 | COC(=O)C1=C2Nc3c(O)cccc3[C@@]23CCN2C[C@H](C(C)=O)[C@@H]1C[C@H]23 [ALSTOLUCINE E] | > 25 | 19.2 | > 25
12 | COC(=O)C1=C2Nc3ccccc3[C@@]23CCN2C[C@H](C(C)=O)[C@@H]1C[C@H]23 [ALSTOLUCINE F] | > 25 | 2.61 | > 25
13 | COC(=O)C1=C2Nc3c(O)cccc3[C@@]23CCN2C[C@@H]([C@H](C)O)[C@@H]1C[C@H]23 [SCHOLARICINE] | > 25 | 1.15 | 13.3 (≈ 37.5 µM)
14 | C/C=C1/CN2CC[C@]34C(=C(C(=O)O)[C@H]1C[C@H]23)Nc1ccccc14 [VINERVINE] | > 25 | 12.1 | > 25
